Measurements as given in ChEMBL document CHEMBL3507680, “University of Dundee, Gates Library screen for HepG2 cell viability”.

Experiment: Human HepG2 cell viability assay in 384 well format
Format: toxicity, cell-based
Design: dose 125 nL, time 70.5 hour; cytotoxicity at 70.5 h: concentration not given beside the values
Conditions: HepG2 cells, read-out: Inhibition

Structure (SMILES) | cytotoxicity at 70.5 h [%]
Cc1nc(N2CCC(CN3CCCC3)CC2)c2cnn(C)c2n1 | -2.49
Cn1ncc2c(N3CCC(CC(=O)N4CCCC4)CC3)ncnc21 | -4.03
CC1CCC(NC(=O)CNC2(c3ccc(Br)cc3)CCOCC2)CC1 (stereo unspecified) | 4.23
CCN(CC(=O)N(C)C)C(=O)c1nc(C)n(-c2ccccc2Cl)n1 | -0.577
CCC(C)C(=O)NCc1c(C)nn(C)c1N1CCCN(C)CC1 (stereo unspecified) | 1.79
COC(=O)COc1ccc(-c2noc(C3CCCO3)n2)cc1 (stereo unspecified) | 24.5
O=C(NCCc1noc(-c2ccccn2)n1)NCC1CCCC1 | -4.99
CC(Nc1cccc2c1OCCO2)C(=O)Nc1ccc(S(N)(=O)=O)cc1 (stereo unspecified) | 25.1
CCc1ccc(NC(=O)C(C)Nc2cccc3c2OCCO3)cc1 (stereo unspecified) | 2
CC(=O)N1CCN(C(=O)CN2CCCC2c2c(C)nn(C)c2C)CC1 (stereo unspecified) | 7.11
Cn1cc(CC2CC(=O)N(Cc3ccc(OC(F)F)cc3)C2=O)cn1 (stereo unspecified) | 3.06
Cc1nn(C)c(N2CCCN(C)CC2)c1CNC(=O)CCC(C)C | -1.98
CCOCCC1(CNC(=O)c2ccncc2)CCC1 | -5.08
CCN(CC)CCn1cc(NC2CCSCC2)cn1 | -1.75
CCc1nc(CN(C)CC(=O)N(C)C2CC2)cs1 | -12.2
Cc1n[nH]c(C2CN(C(=O)CCOCC(F)(F)F)CCO2)n1 (stereo unspecified) | -10.1
O=C(Cn1cccn1)Nc1ccc(N2CCCCC2)cc1 | 31.5
COCCS(=O)(=O)Cc1csc(NC(C)=O)n1 | -16
Cc1nn(CC(C)C)c(C)c1CC(=O)N1CCCC(NS(C)(=O)=O)C1 (stereo unspecified) | -3.7
O=C(NCC(O)COc1ccc(C(F)(F)F)cc1)Nc1nncs1 (stereo unspecified) | -12.1
CCOc1ccc(NCC(=O)NCC(=O)N2CCCC2)c(C(F)(F)F)c1 | -11.7
O=C(NCC1CCS(=O)(=O)C1)c1cccc(CN2CCCC2)c1 (stereo unspecified) | -16
NC(=O)C1CCN(CCc2ccc(NCc3ccoc3)cc2)CC1 | -5.59
Cn1cc(CNc2ccc(CCN3CCC(C(N)=O)CC3)cc2)cn1 | 13.6

Structure (SMILES) | cytotoxicity at 70.5 h [%]
CC(NC1CCN(C(=O)C2CCCCC2)CC1)c1nccs1 (stereo unspecified) | -6.15
C=C(C)CN(CC)S(=O)(=O)c1cccc(F)c1C#N | -9.8
COc1ccc(NC(C)c2ccc(C#N)cc2)cc1N1CCCC1=O (stereo unspecified) | 1.58
CCN(C(C)c1cccc(O)c1)S(=O)(=O)c1cccnc1 (stereo unspecified) | 5.84
COc1ccc(F)c(NCc2cnn(C3CCS(=O)(=O)C3)c2)c1 (stereo unspecified) | 8.41
Cc1ncc(CN(C)C(=O)Nc2cccc(N3CCNC3=O)c2)s1 | -3.19
COc1ccc(CNC(=O)Nc2ccc(=O)n(C)c2)cc1 | -3.5
Cn1cc(NC(=O)NCc2ccsc2)ccc1=O | -2.03
CC(NC(=O)c1cccc[n+]1[O-])c1ccc2c(c1)CCC(=O)N2 (stereo unspecified) | -3.74
CCOC1CCN(C(=O)c2ccc(-n3ncc(C#N)c3N)cc2)CC1 | -0.409
Cc1csc(C2CCCCN2C(=O)COCc2nc(C)no2)n1 (stereo unspecified) | -4.26
CCN(CC)C(=O)c1cc(Br)cc(S(=O)(=O)N2CCOCC2)c1F | -2.06
Cc1ccc(CN(C(=O)C(C)NC(N)=O)C2CC2)cc1C (stereo unspecified) | 25.3
CC(C)NC(=O)c1cc(Br)cc(S(=O)(=O)N2CCOCC2)c1F | -0.805
CCCC1SCCN1C(=O)c1ccc(-n2ncc(C#N)c2N)cc1 (stereo unspecified) | -3.53
CC(=O)NC(C)C(=O)N(Cc1ccc(C)c(C)c1)C1CC1 (stereo unspecified) | 0.332
Cn1cc(NC(=O)c2cccc(C(F)(F)F)c2)c(=O)n(C)c1=O | -2.92
Cc1cc(C(=O)O)ccc1NS(=O)(=O)c1c(C)nn(C(C)C)c1C | -5.01
Cc1ccc(CNc2ccn(CCc3ccncc3)n2)s1 | 2.73
Cc1noc(COCC(=O)N2CCCCC2c2nccs2)n1 (stereo unspecified) | -8.06
Cn1cc(S(=O)(=O)N2CCCC2Cn2ccnc2)cc1C(N)=O (stereo unspecified) | -5.85
Cc1nc(C)c(CCNC(Cc2ccncc2)C(F)(F)F)s1 (stereo unspecified) | 2.53
Cc1noc(COCC(=O)N2CCCC(c3nccs3)C2)n1 (stereo unspecified) | -6.88
Cc1cc(N2CCOCC2)ccc1NC(C)c1nc(C(C)(C)C)no1 (stereo unspecified) | -6.63

Structure (SMILES) | cytotoxicity at 70.5 h [%]
CC(C)C(NC(=O)Nc1ccc(F)cc1)C(=O)N(C)C (stereo unspecified) | 3.02
Cc1ccc(C)c(OC2CCN(C(=O)NCC(=O)N3CCCC3)CC2)c1 | -5.3
CCN1CCN(c2ccc(NC(C)c3nc(C(C)C)no3)c(C)c2)CC1 (stereo unspecified) | -12.5
CC(C)(C)n1nc(C(=O)NC2CCN(CC(N)=O)CC2)cc1C1CC1 | -11.7
Cc1cc(NC(=O)C(C)Nc2cccc(COCc3ccco3)c2)on1 (stereo unspecified) | -20.2
N#Cc1ccc(NCc2cccc(OCC3CCCO3)c2)nc1 (stereo unspecified) | -8.7
Cc1cc(N2CCCC2c2nnc3n2CCCCC3)nc(N)n1 (stereo unspecified) | 22.8
CCc1noc(CN(CCC2CCCCC2)CC(N)=O)n1 | -14.6
C=C(C)CN(CC)C(=O)c1cc(F)ccc1N1CCN(C)CC1 | -12.2
Cc1ccc(C(=O)NCC(c2cnn(C)c2)N(C)C)c(O)c1 (stereo unspecified) | 25.6
Cc1c(C2CC2)n[nH]c1NC(=O)C1CCCN(C(=O)NCC(C)C)C1 (stereo unspecified) | -4.52
CCc1cc(CNC(=O)C2CCCN(C(=O)NCC(C)C)C2)[nH]n1 (stereo unspecified) | -11.9
Cc1ccc(-n2cc(S(=O)(=O)Nc3cccc(C(=O)O)c3C)cn2)cc1 | -12.2
Cc1n[nH]c(C)c1NC(=O)C1CCCN(C(=O)NCC(C)C)C1 (stereo unspecified) | -5.82
CC(C)N(CC(N)=O)C(=O)c1cc(F)ccc1N1CCN(C)CC1 | -5.36
CCC(=O)N(CCC(=O)O)Cc1ccc(F)c(F)c1 | -7.91
CC(=O)c1ccc(NC(=O)C(NC(=O)Nc2ccccc2)C(C)C)cc1 (stereo unspecified) | -10.8
Cc1ccc(F)c2c1CCCN2C(=O)c1cn(CC(=O)N(C)C)nn1 | -7.17
COCCN(CC(C)C)C(=O)c1cccc(Nc2cnccn2)c1 | -13.9
COCCCC(=O)N(CCC(=O)O)Cc1ccc(F)c(F)c1 | -12.3
COc1ccccc1NCC(=O)NCc1cc[nH]n1 | 26.9
COc1ncnc(N)c1CNCC(C)Oc1ccccc1Cl (stereo unspecified) | -3.69
COc1ccc(CNC(=O)CNc2ccccc2OC)cc1 | 2.91
CCn1cnnc1CNC(=O)C1COc2ccc(Cl)cc2C1 (stereo unspecified) | -3.41

Structure (SMILES) | cytotoxicity at 70.5 h [%]
CCCC(C(=O)NC1CCN(S(C)(=O)=O)CC1)c1ccccc1 (stereo unspecified) | -4.97
O=C(NCC(=O)N1CC2(CCCC2)c2c(F)cccc21)C1CC1 | 0.771
CCCc1cc(N2CCCC2Cn2nc(C)cc2C)n2ncnc2n1 (stereo unspecified) | -5.55
CCCc1cc(N2CCCCC2Cn2cc(C)cn2)n2ncnc2n1 (stereo unspecified) | -6.83
COc1cccc(F)c1C(C)NC(=O)NCCc1ccc(C)nc1 (stereo unspecified) | 29.6
COC(=O)c1ccc(N2CCC(N(C)c3ccccc3)CC2)nn1 | 3.35
CCOc1cccc(COC(=O)c2ccc(Cl)cn2)n1 | -8.76
CCOc1cccc(COC(=O)c2cc(Cl)ccn2)n1 | 25.2
CCOc1cccc(COC(=O)c2scnc2C)n1 | 5.38
O=S(=O)(c1ccc(Cl)cc1)N1CCC(OCc2ccccn2)C1 (stereo unspecified) | 2.04
N#Cc1cccc(S(=O)(=O)CCN2CCOC2=O)c1 | -8.07
CC(C)Cc1nc(CNCc2cccc(N3CCCC3=O)c2)no1 | -20.4
CN(Cc1ccncc1)C(CO)c1cccc(F)c1 (stereo unspecified) | -27.2
CC(C)c1nsc(N2CCC(OCCN3CCOCC3)CC2)n1 | -22.2
CC(NC1CCN(CC(=O)N(C)C)CC1)c1cnn(C(C)C)c1 (stereo unspecified) | -14.3
CC(NC1CCN(CCc2ccncc2)CC1)c1cnn(C(C)C)c1 (stereo unspecified) | -18
CN(Cc1ccccn1)C(CO)c1cccc(Br)c1 (stereo unspecified) | -1.08
CC(Cn1cccn1)NCC(=O)N(C)Cc1ccsc1 (stereo unspecified) | 35.4
CC(C)(C)c1ncc(CNc2ccccc2SCCC(N)=O)s1 | 3.11
Cc1oc(-c2ccccc2)nc1CN1CCC(c2ccnn2C)CC1 | -78.8
Cc1ccc(C(NCC(=O)N2CCNC(=O)C2)c2ccccc2)cc1 (stereo unspecified) | -104
Cc1cc(N2CCc3cnc(C)nc3C2)n2nc(C(F)(F)F)nc2n1 | -108
Cc1noc(C)c1CS(=O)(=O)C(C)C(=O)N(C)c1ccccc1 (stereo unspecified) | -111
O=C(CN(CC(O)c1ccc(F)cc1)C1CC1)NC(C1CC1)C1CC1 (stereo unspecified) | -90.6

Structure (SMILES) | cytotoxicity at 70.5 h [%]
Cc1ccc(N2CCC(C(=O)NC3CCc4nccn4C3)CC2)nc1 (stereo unspecified) | -90.5
CCc1nn(C)c2[nH]nc(NC(=O)c3cccnc3OC)c12 | -112
COc1ccc(C(N)=O)cc1NCc1ncc(-c2cccs2)o1 | -14
NC(=O)N1CCC(C(=O)NC2CCc3nccn3C2)CC1 (stereo unspecified) | -110
COc1ccc(C(N)=O)cc1NCc1nc(-c2cccs2)oc1C | -102
COc1ccc(NC(=O)c2ccccc2NCc2ncnn2C)cc1 | -19.9
CNC(=O)NC(C)c1c(F)cccc1Cl (stereo unspecified) | -107
Cc1ccc(CNc2ccccc2SCCC(N)=O)s1 | -99.2
CC(C)n1cnnc1C1CCCN(S(=O)(=O)CCCF)C1 (stereo unspecified) | -93.6
Cc1cc(NC(=O)N2CCCC2C(=O)NC2CC2)c2ncccc2c1 (stereo unspecified) | -98
Cc1cc(NC(=O)N2CCCC2C(C)(C)O)c2ncccc2c1 (stereo unspecified) | -75.7
CCOc1ccc(NC(C)c2nnnn2-c2ccccc2)cc1CO (stereo unspecified) | -66.6
COCC(O)CN(C)C(=O)NCc1ccc(-c2ccn[nH]2)cc1 (stereo unspecified) | -85.9
CS(=O)(=O)CCN(CCCO)C1CCc2ccccc21 (stereo unspecified) | -98.4
CCS(=O)(=O)NCCN(CCO)C1CCc2ccccc21 (stereo unspecified) | -58.4
O=C1CN(C(=O)CNC(CC(F)(F)F)c2ccc(F)cc2)CCN1 (stereo unspecified) | -55.7
COCCC(=O)Nc1ccnn1-c1ccccc1 | 1.36
CC(=O)NCCc1ccc(S(=O)(=O)Nc2ccc(C)c(F)c2)s1 | -5.64
CC(C)c1ncc(Cl)c(C(=O)N2CCN(C3CCCC3)CC2)n1 | -3.22
CCOC(=O)c1cnn(C2CCN(C(=O)CC3C=CCC3)CC2)c1N (stereo unspecified) | -1.64
